Experimental findings from US9029343B2, “Modulators of histone methyltransferase, and methods of use thereof” (Epizyme, Inc., priority 2010, dated 2015) are described below.

Sequence of EZH2 (Q15910 whole entry, species assumed): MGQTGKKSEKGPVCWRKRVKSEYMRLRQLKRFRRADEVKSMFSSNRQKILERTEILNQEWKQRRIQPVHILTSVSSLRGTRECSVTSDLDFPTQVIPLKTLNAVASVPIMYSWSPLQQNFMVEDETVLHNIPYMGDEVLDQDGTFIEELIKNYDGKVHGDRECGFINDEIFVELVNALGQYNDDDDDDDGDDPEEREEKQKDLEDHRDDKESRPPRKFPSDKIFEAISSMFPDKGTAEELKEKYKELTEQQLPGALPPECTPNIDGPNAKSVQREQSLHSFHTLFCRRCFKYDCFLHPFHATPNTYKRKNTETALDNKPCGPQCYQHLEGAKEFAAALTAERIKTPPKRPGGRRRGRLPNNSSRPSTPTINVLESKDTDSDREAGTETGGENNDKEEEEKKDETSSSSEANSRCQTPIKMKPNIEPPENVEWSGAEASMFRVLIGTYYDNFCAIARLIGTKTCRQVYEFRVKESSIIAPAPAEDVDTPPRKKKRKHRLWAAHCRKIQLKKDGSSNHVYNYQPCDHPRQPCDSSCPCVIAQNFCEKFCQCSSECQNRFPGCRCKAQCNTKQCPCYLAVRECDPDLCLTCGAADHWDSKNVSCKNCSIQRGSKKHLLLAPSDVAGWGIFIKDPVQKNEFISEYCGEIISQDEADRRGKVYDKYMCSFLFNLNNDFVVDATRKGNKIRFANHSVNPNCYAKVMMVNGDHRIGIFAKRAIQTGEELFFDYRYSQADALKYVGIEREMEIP
Sequence of EZH2 (O75530 whole entry partner, species assumed): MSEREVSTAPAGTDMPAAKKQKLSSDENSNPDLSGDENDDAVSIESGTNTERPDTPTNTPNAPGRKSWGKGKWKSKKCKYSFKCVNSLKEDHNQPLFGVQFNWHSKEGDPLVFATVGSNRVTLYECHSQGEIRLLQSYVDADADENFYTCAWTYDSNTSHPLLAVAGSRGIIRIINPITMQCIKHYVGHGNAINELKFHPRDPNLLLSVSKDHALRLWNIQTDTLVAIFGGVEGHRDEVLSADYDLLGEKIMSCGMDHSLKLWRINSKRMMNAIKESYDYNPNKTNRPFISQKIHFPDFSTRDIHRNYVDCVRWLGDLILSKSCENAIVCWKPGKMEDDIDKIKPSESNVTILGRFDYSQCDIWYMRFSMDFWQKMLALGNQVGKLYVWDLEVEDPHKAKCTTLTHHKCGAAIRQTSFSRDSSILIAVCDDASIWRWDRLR
Sequence of EZH2 (Q15022 whole entry partner, species assumed): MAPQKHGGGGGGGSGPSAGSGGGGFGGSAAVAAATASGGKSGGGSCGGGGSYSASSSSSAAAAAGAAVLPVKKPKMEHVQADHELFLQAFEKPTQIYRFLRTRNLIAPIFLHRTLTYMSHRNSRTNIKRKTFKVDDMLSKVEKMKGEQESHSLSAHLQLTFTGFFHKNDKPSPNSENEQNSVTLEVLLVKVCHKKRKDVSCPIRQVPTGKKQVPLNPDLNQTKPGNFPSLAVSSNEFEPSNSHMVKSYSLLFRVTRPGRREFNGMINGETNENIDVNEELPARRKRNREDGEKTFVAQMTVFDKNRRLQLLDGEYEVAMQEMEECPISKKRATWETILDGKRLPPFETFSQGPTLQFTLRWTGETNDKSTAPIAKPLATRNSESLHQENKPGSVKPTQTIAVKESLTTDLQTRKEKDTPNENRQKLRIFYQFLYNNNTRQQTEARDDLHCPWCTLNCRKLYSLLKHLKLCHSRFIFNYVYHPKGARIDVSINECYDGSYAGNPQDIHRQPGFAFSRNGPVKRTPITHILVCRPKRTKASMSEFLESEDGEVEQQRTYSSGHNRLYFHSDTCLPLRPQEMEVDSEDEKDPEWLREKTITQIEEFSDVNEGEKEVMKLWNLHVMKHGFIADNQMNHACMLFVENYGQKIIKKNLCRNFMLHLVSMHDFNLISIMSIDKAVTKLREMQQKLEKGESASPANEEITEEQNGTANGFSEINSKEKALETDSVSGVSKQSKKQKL

The first experiment relates to H3K79me2 in THP-1 cells. Put plainly: Methylation analysis: cellular H3K79 dimethylation in THP-1 cells. The settings on record: 50 μM, seven days, western blot. The experiment is classed as cell-based, Human. As to the method: THP-1 cells were incubated in the presence 50 μM of the indicated compounds for seven days. […] Following treatment, cells were harvested, and histones were extracted, fractionated by SDS-PAGE on a 4-20% gel, transferred to nitrocellulose membranes, and probed with antibodies to histone H3 and histone H3 dimethylated at lysine 79 (H3K79me2). Histones extracted from THP-1 cells expressing control (shNTC) and DOT1L targeting (shDOT1L) shRNAs were included as controls.
Cells were seeded at 5×10^5 cells/mL in a 12 well plate at a final volume of 2 mLs. Cells were dosed with compounds to the appropriate concentration from a 50 mM DMSO stock solution. Compound and media were refreshed every two days over the course of seven day incubation by counting cells using trypan blue exclusion (Vicell), pelleting at 200 g for 5 minutes and resuspending in fresh media containing compound at a final cell concentration of 5×10^5 cells/mL. […] Purified histones were quantitated using the BCA protein assay (Pierce) with a BSA standard curve. 400 ng of isolated histones were fractionated by SDS-PAGE on a 4-20% gel and transferred to nitrocellulose membranes. Membranes were incubated with various primary and secondary antibodies and imaged on the Licor imaging system (Odyssey). The H3K79-Me2 rabbit polyclonal was purchased from Abcam. Other rabbit polyclonal antibodies including H3K4-Me3, H3K9-Me3, H3K27-Me2, and H3K27-Me3 were purchased from Cell Signaling Technologies (CST). A mouse monoclonal total H3 antibody was used as a loading control (CST). Fluorescently labeled secondary antibodies were purchased from Odyssey.
A general note: Immunoblotting shows a protein as a band on a membrane.
For the compound `CN(CCCNC(=O)Nc1ccc(C(C)(C)C)cc1)C[C@H]1O[C@@H](n2cnc3c(N)ncnc32)[C@H](O)[C@@H]1O` [Compound 118, 1-(3-((((2R,3S,4R,5R)-5-(6-amino-9H-purin-9-yl)-3,4-dihydroxytetrahydrofuran-2-yl)methyl)(methyl)amino)propyl)-3-(4-(tert-butyl)phenyl)urea], the “cellular histone H3 lysine 79 dimethylation (H3K79me2) level” value was “dramatically reduced”.

The same experiment, now with this note: seven days, lowest concentration tested.
Turning to `CN(CCCNC(=O)Nc1ccc(C(C)(C)C)cc1)C[C@H]1O[C@@H](n2cnc3c(N)ncnc32)[C@H](O)[C@@H]1O` [Compound 118, 1-(3-((((2R,3S,4R,5R)-5-(6-amino-9H-purin-9-yl)-3,4-dihydroxytetrahydrofuran-2-yl)methyl)(methyl)amino)propyl)-3-(4-(tert-butyl)phenyl)urea], the “concentration at which reduction in H3K79me2 was still observed” value is no more than 0.4 µM.

Staying with this experiment, now noted: several concentrations.
With `CN(CCCNC(=O)Nc1ccc(C(C)(C)C)cc1)C[C@H]1O[C@@H](n2cnc3c(N)ncnc32)[C@H](O)[C@@H]1O` [Compound 118, 1-(3-((((2R,3S,4R,5R)-5-(6-amino-9H-purin-9-yl)-3,4-dihydroxytetrahydrofuran-2-yl)methyl)(methyl)amino)propyl)-3-(4-(tert-butyl)phenyl)urea], the “concentration dependence of reduction in H3K79me2 levels” value is “dose dependent reduction”.

A further experiment has as its target EZH2 (Homo sapiens, UniProt Q15910). Put plainly: EZH2 IC50 (FIGS. 7A and 7B). The class given is biochemical.
Details: not given
As a reminder, the IC50 is the concentration that gives 50% inhibition. Compound `CC(C)(C)c1ccc(NC(=O)NCCCN(C=O)C[C@H]2O[C@@H](n3cnc4c(N)ncnc43)[C@H](O)[C@@H]2O)cc1` [Compound 206] came in with an IC50 greater than 50 µM.
Still for that read-out and setting: the result for `CCN(CCCNC(=O)Nc1ccc(C(C)(C)C)cc1)C[C@H]1O[C@@H](n2cnc3c(N)ncnc32)[C@H](O)[C@@H]1O` [Compound 169] reads greater than 50 µM; that for `CN(C[C@H]1O[C@@H](n2cnc3c(N)ncnc32)[C@H](O)[C@@H]1O)CC(C)(C)CNC(=O)Nc1ccc(C(C)(C)C)cc1` [Compound 163], greater than 50 µM; that for `CN(C[C@H]1O[C@@H](n2cnc3c(N)ncnc32)[C@H](O)[C@@H]1O)CC1(CNC(=O)Nc2ccc(C(C)(C)C)cc2)CC1` [Compound 167], greater than 50 µM.
For `CN(CCCCC(=O)Nc1ccc(C(C)(C)C)cc1)C[C@H]1O[C@@H](n2cnc3c(N)ncnc32)[C@H](O)[C@@H]1O` [Compound 179], the IC50 was greater than 50 µM.
On the same count and under the same terms, in the case of `CN(CCCNC(=O)Nc1ccc(C2CCCCC2)cc1)C[C@H]1O[C@@H](n2cnc3c(N)ncnc32)[C@H](O)[C@@H]1O` [Compound 185] it was greater than 50 µM; in that of `CN(CCCCCNC(=O)Nc1ccc(C(C)(C)C)cc1)C[C@H]1O[C@@H](n2cnc3c(N)ncnc32)[C@H](O)[C@@H]1O` [Compound 213], greater than 50 µM.
Same read-out and setting: the result for `CC(CNC(=O)Nc1ccc(C(C)(C)C)cc1)CN(C)C[C@H]1O[C@@H](n2cnc3c(N)ncnc32)[C@H](O)[C@@H]1O` (some centres unmarked) [Compound 223] reads greater than 50 µM.
Consider `CN(CCCNC(=O)Nc1ccc(Oc2ccccc2N)cc1)C[C@H]1O[C@@H](n2cnc3c(N)ncnc32)[C@H](O)[C@@H]1O` [Compound 183], for which the 50% inhibitory concentration (IC50) is greater than 50 µM.
Compound `CC(=O)N(CCCNC(=O)Nc1ccc(C(C)(C)C)cc1)C[C@H]1O[C@@H](n2cnc3c(N)ncnc32)[C@H](O)[C@@H]1O` [Compound 195] had an IC50 greater than 50 µM.
Still for that read-out and setting: in the case of `CN(CCCN(C)C(=O)Nc1ccc(C(C)(C)C)cc1)C[C@H]1O[C@@H](n2cnc3c(N)ncnc32)[C@H](O)[C@@H]1O` [Compound 173] it was greater than 50 µM; in that of `CN(CCCOC(=O)Nc1ccc(C(C)(C)C)cc1)C[C@H]1O[C@@H](n2cnc3c(N)ncnc32)[C@H](O)[C@@H]1O` [Compound 152], greater than 50 µM.
Still for that read-out and setting: the result for `Cc1cccc(-c2ccc(NC(=O)NCCCN(C)C[C@H]3O[C@@H](n4cnc5c(N)ncnc54)[C@H](O)[C@@H]3O)cc2)c1` [Compound 199] reads greater than 50 µM; that for `CN(CCCCNC(=O)Nc1ccc(C(C)(C)C)cc1)C[C@H]1O[C@@H](n2cnc3c(N)ncnc32)[C@H](O)[C@@H]1O` [Compound 159], greater than 50 µM; that for `CC(C)CN(CCCNC(=O)Nc1ccc(C(C)(C)C)cc1)C[C@H]1O[C@@H](n2cnc3c(N)ncnc32)[C@H](O)[C@@H]1O` [Compound 209], greater than 50 µM.
Still for that read-out and setting: the result for `CN(CCCNC(=O)Nc1ccc(-c2cscn2)cc1)C[C@H]1O[C@@H](n2cnc3c(N)ncnc32)[C@H](O)[C@@H]1O` [Compound 190] reads greater than 50 µM.

Another experiment has as its system H3K4, H3K9 and H3K27 methylation in THP-1 cells. Put plainly: Methylation analysis: other histone methylation sites in THP-1 cells. The experiment is classed as cell-based, Human. To be noted: antibodies to H3K4me3, H3K9me3, H3K27me2, H3K27me3. As to the method:
Cells were seeded at 5×10^5 cells/mL in a 12 well plate at a final volume of 2 mLs. Cells were dosed with compounds to the appropriate concentration from a 50 mM DMSO stock solution. Compound and media were refreshed every two days over the course of seven day incubation by counting cells using trypan blue exclusion (Vicell), pelleting at 200 g for 5 minutes and resuspending in fresh media containing compound at a final cell concentration of 5×10^5 cells/mL. Following compound incubation, histones were extracted from 1×10^6 cells using a commercial histone extraction kit (Active Motif). Purified histones were quantitated using the BCA protein assay (Pierce) with a BSA standard curve. 400 ng of isolated histones were fractionated by SDS-PAGE on a 4-20% gel and transferred to nitrocellulose membranes. Membranes were incubated with various primary and secondary antibodies and imaged on the Licor imaging system (Odyssey). The H3K79-Me2 rabbit polyclonal was purchased from Abcam. Other rabbit polyclonal antibodies including H3K4-Me3, H3K9-Me3, H3K27-Me2, and H3K27-Me3 were purchased from Cell Signaling Technologies (CST). A mouse monoclonal total H3 antibody was used as a loading control (CST). Fluorescently labeled secondary antibodies were purchased from Odyssey.
Take `CN(CCCNC(=O)Nc1ccc(C(C)(C)C)cc1)C[C@H]1O[C@@H](n2cnc3c(N)ncnc32)[C@H](O)[C@@H]1O` [Compound 118, 1-(3-((((2R,3S,4R,5R)-5-(6-amino-9H-purin-9-yl)-3,4-dihydroxytetrahydrofuran-2-yl)methyl)(methyl)amino)propyl)-3-(4-(tert-butyl)phenyl)urea]: the “effect on sites targeted by other histone methyltransferases (H3K4, H3K9 and H3K27)” value is reported as “did not affect”.
